How the values were obtained:
[1] = cited from earlier work
[2] = system: V600E+ (BRAF mutated) SM1 tumor; test: SM1 tumor model, in vivo tumor growth curve over 21 days; set-up: species or system C57BL/6 mice
Source text: In this study 6-8 week old female C57BL/6 mice were inoculated with SM1 tumor fragments (TME* components present).

SMILES | degradation in plasma [1] | tumor growth (FIG. 3), standard combination ([2]; dabrafenib 30 mg/kg daily by oral gavage + immune checkpoint inhibitors 10 mg/kg Q4D IP, 21 days) | efficacy on addition to anti-PD1/ETBR antagonist combination ([2]; three-part combination therapy)
CCCC[C@@H](NC(=O)[C@@H](Cc1cn(C(=O)OC)c2ccccc12)NC(=O)[C@H](CC(C)(C)C)NC(=O)N1[C@H](C)CCC[C@@H]1C)C(=O)O [BQ788, (2R)-2-[[(2R)-2-[[(2S)-2-[[(2R,6S)-2,6-dimethylpiperidine-1-carbonyl]amino]-4,4-dimethylpentanoyl]amino]-3-(1-methoxycarbonylindol-3-yl)propanoyl]amino]hexanoic acid] | rapidly degraded in plasma | – | –
CC(C)(C)c1nc(-c2cccc(NS(=O)(=O)c3c(F)cccc3F)c2F)c(-c2ccnc(N)n2)s1 [dabrafenib] | – | failed to shrink tumors but demonstrated intermediate tumor growth inhibition | impairs efficacy

From patent publication US20210077562A1, “ETBR ANTAGONIST COMPOUNDS, COMPOSITIONS, AND USES” (ENB Therapeutics, Inc., priority 2018, published 2021)
